Patent US20110263539A1, “SHIP 1 MODULATOR COMPOUNDS” (THE UNIVERSITY OF BRITISH COLUMBIA, priority 2006, published 2011)

Experiments:
J774.1a macrophage cells = assay: Macrophage TNF-α production (Assay 2); type: cell-based; conditions: 10 μg/mL test compound, 100 ng/mL LPS, ELISA; further: key: a ‘+’ indicates a positive result for desired activity; a ‘−’ indicates a negative result for desired activity
Protocol: Assay 2) Macrophage TNF-α production. J774.1a macrophage cells were treated with 10 μg/mL of test compound dissolved in solvent (e.g. cyclodextran) for 40 minutes prior to the addition of 100 ng/mL LPS. Culture supernatants were collected after 2 hr and 5 hr for TNF-α determination by ELISA.

plasma TNFα = assay: Mouse endotoxemia model (Assay 6); type: in vivo, C57B16 mice; conditions: oral administration 30 min prior to LPS, 2 hrs
Protocol: (§1) Assay 6) Mouse endotoxemia model. 6-8 week old C57B16 mice (VCHRI Mammalian Model of Human Disease Core Facility, Vancouver, BC) were orally administered the test compound 30 min prior to an IP injection of 2 mg/kg of LPS (E. Coli serotype 0111:B4, Sigma, Oakville, Ont). Blood was drawn 2 hrs later for determination of plasma TNFα by ELISA.
as §1, with “Mouse” for “Assay 6) Mouse”, “indicated dose of AQX-016A, Compound 100 or dexamethasone or carrier” for “test compound”, “ELISA. Results are representative of 3 independent experiments. (FIGS. 7D and 9)” for “ELISA.”
AQX-016A's ability to provide protection by inhibiting inflammatory reactions in vivo was assessed in mouse models. The mouse model of endotoxic shock involves intraperitoneal (IP) injection of bacterial LPS and measurement of serum TNFα levels 2 hrs later. We orally administered AQX-016A or the steroidal drug dexamethasone to mice 30 min prior to the LPS challenge.

MM cell lines = assay: In vitro Multiple Myeloma (MM) assay (Assay 7); type: cell-based; on Assay Number 7: In vitro Multiple Myeloma (MM) assay: key: a ‘+’ indicates a positive result for desired activity; a ‘−’ indicates a negative result for desired activity
Protocol: Assay 7) In vitro Multiple Myeloma (MM) assay. The ability of SHIP activators to reduce tumor cell survival was assessed in MM cell lines treated with the test compound. The lines OPM1, OPM2, MM.1S and RPMI 8226 were plated at a density of 1×10^5 cells/mL in 200 μL of medium with various concentrations of the test compound, and viable cell numbers were determined on day 3 and day 5 by trypan blue exclusion. The lines RPMI 8226 and U266 were plated at a density of 1×10^6 cells/mL in 250 μL of medium with various concentrations of the test compound. At day 4, the medium of each culture was replaced by fresh medium containing the same concentration of test compound. At day 7, the viable cell number of each culture was determined by trypan blue exclusion.
MM cell lines were cultured in 96 well plates seeded with 3×10^4 cells suspended in 200 μL of medium along with various concentrations of test compound (and associated cyclodextran vehicle control), with LY294002 serving as a positive control in the experiments. After 24-48 hrs of culture, […] of [3H]-thymidine (GE Healthcare, Baie D'Urfe, Canada) being added for the final 8 hours. Cells were harvested and DNA associated radioactivity was measured via liquid scintillation counting using a Wallac Microbeta counter (Perkin-Elmer; Boston, Mass.).
The ability of SHIP activators to reduce tumor cell survival was assessed in multiple myeloma (MM) cell lines treated with Compound 100 or AQX-016A. The lines OPM1, OPM2, MM.1S and RPMI 8226 were plated at a density of 1×10^5 cells/mL in 200 μL of medium with various concentrations of Compound 100, and viable cell numbers were determined on day 3 and day 5 by trypan blue exclusion. The lines RPMI 8226 and U266 were plated at a density of 1×10^6 cells/mL in 250 μL of medium with various concentrations of AQX-016A. At day 4, the medium of each culture was replaced by fresh medium containing the same concentration of AQX-016A. At day 7, the viable cell number of each culture was determined by trypan blue exclusion. Experiments were performed in triplicate.
Proliferation (DNA synthesis) assays. Proliferation was measured by measuring incorporation of [^3H]-thymidine into cells. MM cell lines were cultured in 96 well plates seeded with 3×10^4 cells suspended in 200 μL, of medium along with various concentrations of Compound 100 or AQX-016A (and associated cyclodextran vehicle control), with LY294002 serving as a positive control in the indicated experiments. After 24-48 hrs of culture, 1 μCi of [^3H]-thymidine (GE Healthcare, Baie D'Urfe, Canada) being added for the final 8 hours. Plates were frozen, which also aided in cell lysis, to terminate the experiments. Cells were then harvested onto glass fibre filters using an automatic cell harvester (TomTech; Orange, Conn.) and DNA associated radioactivity was measured via liquid scintillation counting using a Wallac Microbeta counter (Perkin-Elmer; Boston, Mass.). Wells were set up in triplicate and data is expressed as mean+/−SEM.

[1] = tested on: 100 protein kinase and phosphatase targets; assay: Profiling on 100 protein kinase and phosphatase targets; type: biochemical; conditions: 2 μM final concentration
Protocol: Compound profiling activity was undertaken using 100 protein kinase and phosphatase targets by SignalChem (Richmond, BC, Canada. www.signalchem.com) against compound Compound 100 (2 μM final concentration). Protein kinase assays were performed in the presence of 50 μM ATP at 30° C. for 15 min. Protein phosphatase activities were determined using pNPP as substrate and were also performed at 37° C. for 15 min. The activity of the enzymes in the presence of Compound 100 was compared to that in the vehicle control and expressed as a % change in activity relative to that observed in the vehicle control. Changes in activity of <25% were not considered significant. Enzymes affected by Compound 100 are plotted in an expanded graph in FIG. 12B.

[2] = Initial toxicology studies; type: in vivo; conditions: data not shown
Excerpt: A novel paradigm for inhibiting PI3K signaling through activation of the phosphatases that negatively regulate this pathway is provided. SHIP is a particularly good target for immune/hematopoietic disorders because of its restricted expression to hematopoietic cells. Because the relative activity of phosphatases present in a cell will influence the efficacy of kinase inhibitors, as discussed by Knight and Shokat, SHIP agonists may also be used to potentiate the activation of PI3K inhibitors and promote tissue targeting of PI3K inhibitors to the ematopoietic/immune cell compartment.

- off-target effects [1]: minimal off-target effects
Compound: Cc1cc(O)cc2c1[C@]1(C)CCC3C(C)(C)CCC[C@]3(C)[C@H]1C2 (stereo partly drawn) [Compound 100]
- Assay Number 2: Macrophage TNF-α production (J774.1a macrophage cells): +
- LPS-induced plasma/serum TNFα levels (plasma TNFα): efficiently inhibited
- Assay Number 7: In vitro Multiple Myeloma (MM) assay (MM cell lines): +
- MM proliferation (MM cell lines; viable cell numbers, trypan blue exclusion): inhibits MM proliferation at lower concentrations than AQX-016A
- peripheral blood cell counts or bone marrow progenitor numbers [2]: do not significantly affect
